Data from ChEMBL document CHEMBL1201862, “PubChem BioAssay data set” (2004).
Active and inactive are the calls of the source.

Legend:
[1] = biological target: T1, Dual specificity protein phosphatase 3 (Homo sapiens, UniProt P51452); assay: SAR VHR1 absorbance Assay for In Vitro dose response studies. [Related pubchem assays (depositor defined):AID1654, AID1661, AID1878, AID1992, AID2004]
[2] = biological target: T2, Tyrosine-protein phosphatase non-receptor type 7 (Homo sapiens, UniProt P35236); assay: SAR analysis of chemical inhibitors of HePTP using a Fluorescent assay - Set 2. [Related pubchem assays (depositor defined):AID1059, AID1077, AID1661, AID2085, AID521]; assay type: functional
T2 sequence (P35236 whole entry): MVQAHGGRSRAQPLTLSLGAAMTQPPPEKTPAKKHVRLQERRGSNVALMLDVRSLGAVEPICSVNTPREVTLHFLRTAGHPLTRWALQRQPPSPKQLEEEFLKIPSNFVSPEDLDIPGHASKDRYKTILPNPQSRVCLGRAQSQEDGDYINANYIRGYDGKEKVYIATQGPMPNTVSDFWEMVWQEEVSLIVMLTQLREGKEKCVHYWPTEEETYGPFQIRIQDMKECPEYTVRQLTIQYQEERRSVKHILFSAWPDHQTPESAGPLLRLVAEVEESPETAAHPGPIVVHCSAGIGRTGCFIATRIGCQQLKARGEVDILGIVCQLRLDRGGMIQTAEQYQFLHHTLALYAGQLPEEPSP

[3] = biological target: T1, Dual specificity protein phosphatase 3; assay: SAR VHR1 Fluorescent Assay for In Vitro dose response studies Set 2. [Related pubchem assays (depositor defined):AID1654, AID1661, AID1878]; assay type: functional
[4] = biological target: T3, Dual specificity protein phosphatase 6 (Rattus norvegicus, UniProt Q64346); assay type: functional
T3 sequence (Q64346 whole entry): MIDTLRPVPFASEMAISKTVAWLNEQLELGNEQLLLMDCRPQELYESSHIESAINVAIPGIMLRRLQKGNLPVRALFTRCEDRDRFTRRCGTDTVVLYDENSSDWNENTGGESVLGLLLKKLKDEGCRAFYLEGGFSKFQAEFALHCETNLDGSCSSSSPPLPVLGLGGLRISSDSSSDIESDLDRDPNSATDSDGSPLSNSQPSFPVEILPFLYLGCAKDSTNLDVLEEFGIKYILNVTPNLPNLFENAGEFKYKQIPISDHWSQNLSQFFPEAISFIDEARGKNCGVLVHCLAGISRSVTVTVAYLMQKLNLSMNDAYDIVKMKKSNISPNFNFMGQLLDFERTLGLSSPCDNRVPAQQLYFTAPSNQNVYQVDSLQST

[5] = biological target: T3, Dual specificity protein phosphatase 6; assay: SAR analysis of inhibitors of MKP-3 - Set 2. [Related pubchem assays (depositor defined):AID1055, AID1661, AID425, AID553, AID566]; assay type: functional
[6] = biological target: T2, Tyrosine-protein phosphatase non-receptor type 7; assay: inhibition of hematopoietic tyrosine phosphatase HePTP – biochemical, set 2, SAR follow-up (AID 449736); assay type: functional
[7] = biological target: T2, Tyrosine-protein phosphatase non-receptor type 7; assay: redox-active compounds inhibiting HePTP phosphatase – biochemical, fluorescence, mechanism study (AID 2068); assay type: functional
[8] = biological target: T1, Dual specificity protein phosphatase 3; assay: SAR VHR1 Fluorescent Assay for In Vitro dose response studies. [Related pubchem assays (depositor defined):AID1654, AID1661, AID1878, AID1992, AID2004, AID2070, AID2085]; assay type: functional
[9] = biological target: G-protein coupled receptor 55 (Homo sapiens, UniProt Q9Y2T6); assay: selective activators of receptor GPR55 – imaging, U2OS cells, beta-arrestin-GFP redistribution, primary screen (AID 1961); assay type: functional
[10] = biological target: Melanin-concentrating hormone receptor 1 (Homo sapiens, UniProt Q99705); assay: Late-stage fluorescence-based counterscreen for antagonists of the G-protein coupled receptor 7 (GPR7): cell-based dose response assay to identify antagonists of the melanin-concentrating hormone receptor 1 (MCHR1). [Related pubchem assays (depositor defined):AID1861, AID1880, AID1952, AID2148, AID2251, AID2257, AID485339]; assay type: functional;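 also: stimulated with 30 nM MCH peptide agonist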
[11] = Trypanosoma cruzi growth suppression in host cells – NIH3T3 host cells, beta-gal luminescence, confirmation (AID 2044); assay type: functional, cell-based;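 also: intracellular parasites grown in NIH/3T3 mouse fibroblasts as host cells; luminescent beta-galactosidase reporter signal from transgenic T. cruzi replicating inside host cells; inhibitors lower the luminescence signal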
[12] = NIH/3T3 cell viability loss – mouse embryonic fibroblasts, dry powder, set 2, cytotoxicity control, dose response (AID 493247); assay type: functional, cell-based; settings: Fibroblast
[13] = NIH3T3 cell viability loss – ATP luminescence, mouse fibroblasts, counter-screen, dose response (AID 2010); assay type: functional, cell-based;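 also: cells exposed to compound for about 90 hours before reading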
[14] = biological target: Tyrosine-protein phosphatase non-receptor type 12 (Homo sapiens, UniProt Q05209); assay: SAR Selectivity Analysis of small molecule inhibitors of PEST using pCAP in a fluorescence assay. [Related pubchem assays (depositor defined):AID1779, AID1784, AID2135]; assay type: functional
[15] = biological target: T4, Tyrosine-protein phosphatase non-receptor type 22 (Homo sapiens, UniProt Q9Y2R2); assay: SAR LYP1 Fluorescent Assay using OMFP substrate for In Vitro dose response studies - Set 3. [Related pubchem assays (depositor defined):AID1779, AID1784, AID2140, AID2686]; assay type: functional
[16] = biological target: T4, Tyrosine-protein phosphatase non-receptor type 22; assay: inhibition of lymphoid tyrosine phosphatase LYP – biochemical, pCAP fluorogenic substrate, fluorescence, set 3, SAR follow-up (AID 449727); assay type: functional
Vero [17] = assay: antiviral activity against WNV, CPE read-out – cell-based (AID 2419); assay type: functional; settings: Chlorocebus sabaeus
Vero [18] = assay: Vero cell viability after compound exposure – synthesized analogs, set II, cytotoxicity control for West Nile virus antiviral project, SAR follow-up (AID 2402); assay type: functional; settings: Chlorocebus sabaeus
[19] = A Cell Based Assay for the Identification of Probe candidate Compounds with Anti- Venezuelan Equine Encephalitis virus. [Related pubchem assays: 2409, 2419, 1621, 2238, 2405, 2024, 2065, 2402, 2414, 1635, 1650, 2244 ]; assay type: functional
Vero [20] = assay: Vero 76 cell viability after compound exposure – Vero 76 cells, synthesized analogs, cytotoxicity control for West Nile virus antiviral project, SAR follow-up (AID 2414); assay type: functional; settings: Chlorocebus sabaeus
Vero [21] = assay: antiviral protection of cells from WNV – synthesized analogs, SAR follow-up (AID 2238); assay type: functional, cell-based; settings: Chlorocebus sabaeus
Vero [22] = assay: host cell viability loss, Vero E6 – synthesized analogs, cytotoxicity control for West Nile virus antiviral project, SAR follow-up (AID 2244); assay type: functional; settings: Chlorocebus sabaeus
Tumor necrosis factor = Tumor necrosis factor (Homo sapiens, UniProt P01375); assay: analog potency on TNFa NF-kB signaling – cell-based, revised, SAR follow-up (AID 2337); assay type: functional
HEK293 = assay: cells; settings: Homo sapiens;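 also: cells exposed to compound for 14 hours overnight before viability readout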
[23] = biological target: Nucleotide-binding oligomerization domain-containing protein 1 (Homo sapiens, UniProt Q9Y239); assay: blockers of NOD1 pathway activity – revised, SAR follow-up (AID 2333); assay type: functional
[24] = biological target: Nucleotide-binding oligomerization domain-containing protein 2 (Homo sapiens, UniProt Q9HC29); assay: PubChem AID 2334; assay type: functional
[25] = biological target: Alkaline phosphatase, placental type (Homo sapiens, UniProt P05187); assay: human placental alkaline phosphatase inhibition – biochemical, luminescence, confirmation (AID 1512); assay type: functional
[26] = biological target: Glyceraldehyde-3-phosphate dehydrogenase (Homo sapiens, UniProt P04406)
[27] = biological target: T5, Alkaline phosphatase, tissue-nonspecific isozyme (Homo sapiens, UniProt P05186); assay: potency against alkaline phosphatase TNAP – biochemical, luminescent, dose response, SAR follow-up (AID 1056)
T5 sequence (P05186 whole entry): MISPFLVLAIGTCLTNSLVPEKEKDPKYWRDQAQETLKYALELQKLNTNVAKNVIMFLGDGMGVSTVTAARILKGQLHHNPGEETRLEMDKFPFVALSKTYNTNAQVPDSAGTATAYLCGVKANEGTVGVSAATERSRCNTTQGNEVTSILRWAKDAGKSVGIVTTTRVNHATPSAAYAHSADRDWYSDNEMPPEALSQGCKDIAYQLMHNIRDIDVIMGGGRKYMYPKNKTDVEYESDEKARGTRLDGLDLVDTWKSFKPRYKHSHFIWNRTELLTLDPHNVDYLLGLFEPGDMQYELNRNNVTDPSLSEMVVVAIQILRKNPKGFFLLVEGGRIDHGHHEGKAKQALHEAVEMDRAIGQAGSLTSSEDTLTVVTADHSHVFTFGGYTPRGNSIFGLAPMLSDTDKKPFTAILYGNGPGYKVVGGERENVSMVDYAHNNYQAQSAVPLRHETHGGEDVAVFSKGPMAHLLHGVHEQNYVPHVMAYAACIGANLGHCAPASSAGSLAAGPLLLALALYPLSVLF

CAAX prenyl protease 2 = CAAX prenyl protease 2 (Saccharomyces cerevisiae S288c, UniProt Q03530); assay type: biochemical
Coagulation factor XII = Coagulation factor XII (Homo sapiens, UniProt P00748); assay: activated coagulation factor XII inhibitor potency, concentration-effect curve, cell-free (AID 716); assay type: functional
[28] = biological target: T1, Dual specificity protein phosphatase 3; assay: inhibition constants for human DUSP3 – biochemical, colorimetric, SAR follow-up (AID 2004)
[29] = biological target: G2/mitotic-specific cyclin-B1 (Homo sapiens, UniProt P14635); assay: HeLa cell cycle G2/M accumulation – FACS, mechanism study for Wee1 degradation inhibitor project, late-stage follow-up, panel member Cyclin B Degradation (AID 2088)
Wee1-like protein kinase = Wee1-like protein kinase (Homo sapiens, UniProt P30291); assay: HeLa cell cycle G2/M accumulation – FACS, mechanism study for Wee1 degradation inhibitor project, late-stage follow-up, panel member Wee1 Degradation (AID 2088)

T1 sequence (P51452 whole entry): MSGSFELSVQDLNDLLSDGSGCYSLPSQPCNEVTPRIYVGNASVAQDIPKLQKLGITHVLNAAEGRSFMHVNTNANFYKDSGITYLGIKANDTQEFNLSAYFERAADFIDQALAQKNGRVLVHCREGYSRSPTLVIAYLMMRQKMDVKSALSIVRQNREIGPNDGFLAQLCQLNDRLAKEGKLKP
T4 sequence (Q9Y2R2 whole entry): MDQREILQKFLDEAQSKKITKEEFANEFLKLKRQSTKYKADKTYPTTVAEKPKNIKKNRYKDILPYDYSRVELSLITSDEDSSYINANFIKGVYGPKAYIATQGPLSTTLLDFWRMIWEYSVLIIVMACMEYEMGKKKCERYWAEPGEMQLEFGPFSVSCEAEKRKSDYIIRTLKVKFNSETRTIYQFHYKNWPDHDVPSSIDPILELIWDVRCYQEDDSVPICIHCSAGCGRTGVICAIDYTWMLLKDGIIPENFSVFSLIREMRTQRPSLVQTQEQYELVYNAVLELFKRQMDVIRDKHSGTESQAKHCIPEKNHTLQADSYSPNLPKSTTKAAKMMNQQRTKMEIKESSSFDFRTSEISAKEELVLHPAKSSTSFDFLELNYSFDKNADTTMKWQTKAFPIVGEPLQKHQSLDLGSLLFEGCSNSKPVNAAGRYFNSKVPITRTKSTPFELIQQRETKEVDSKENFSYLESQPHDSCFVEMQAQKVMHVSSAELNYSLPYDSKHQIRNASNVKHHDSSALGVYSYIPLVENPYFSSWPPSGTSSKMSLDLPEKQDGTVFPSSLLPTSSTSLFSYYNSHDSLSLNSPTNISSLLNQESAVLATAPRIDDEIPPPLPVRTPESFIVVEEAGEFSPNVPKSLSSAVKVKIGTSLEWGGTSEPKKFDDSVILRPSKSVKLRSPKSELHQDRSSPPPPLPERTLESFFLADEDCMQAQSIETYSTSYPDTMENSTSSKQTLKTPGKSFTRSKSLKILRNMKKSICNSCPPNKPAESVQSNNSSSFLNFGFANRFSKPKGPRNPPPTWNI
Sequence of Alkaline phosphatase, placental type (P05187 whole entry): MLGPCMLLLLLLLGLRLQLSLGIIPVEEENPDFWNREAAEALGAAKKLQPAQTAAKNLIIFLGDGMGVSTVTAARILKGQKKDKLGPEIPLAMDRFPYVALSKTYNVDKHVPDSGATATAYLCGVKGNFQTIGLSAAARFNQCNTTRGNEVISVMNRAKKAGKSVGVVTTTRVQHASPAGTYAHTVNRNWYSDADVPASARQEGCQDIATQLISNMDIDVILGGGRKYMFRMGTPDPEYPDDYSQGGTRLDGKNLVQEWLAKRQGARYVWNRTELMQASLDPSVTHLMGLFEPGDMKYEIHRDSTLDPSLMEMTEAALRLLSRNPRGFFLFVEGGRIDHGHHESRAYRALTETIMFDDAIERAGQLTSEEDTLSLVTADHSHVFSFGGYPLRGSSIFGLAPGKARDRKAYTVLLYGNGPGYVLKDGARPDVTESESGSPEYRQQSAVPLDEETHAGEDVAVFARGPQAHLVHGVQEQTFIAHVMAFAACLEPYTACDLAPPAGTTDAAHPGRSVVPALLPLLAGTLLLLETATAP
Sequence of G2/mitotic-specific cyclin-B1 (P14635 whole entry): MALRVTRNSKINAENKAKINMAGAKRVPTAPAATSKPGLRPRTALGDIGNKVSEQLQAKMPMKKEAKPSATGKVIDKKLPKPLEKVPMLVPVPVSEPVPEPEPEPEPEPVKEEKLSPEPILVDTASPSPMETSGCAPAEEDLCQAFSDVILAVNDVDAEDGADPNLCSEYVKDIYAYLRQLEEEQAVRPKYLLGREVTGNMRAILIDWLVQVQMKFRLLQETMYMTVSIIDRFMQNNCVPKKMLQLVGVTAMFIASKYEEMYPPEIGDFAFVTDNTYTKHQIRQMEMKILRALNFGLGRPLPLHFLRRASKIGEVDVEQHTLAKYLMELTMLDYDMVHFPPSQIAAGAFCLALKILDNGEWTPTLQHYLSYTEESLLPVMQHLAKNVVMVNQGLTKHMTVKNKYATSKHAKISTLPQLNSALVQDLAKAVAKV
Sequence of Nucleotide-binding oligomerization domain-containing protein 1 (Q9Y239 whole entry, the tested form may be a part): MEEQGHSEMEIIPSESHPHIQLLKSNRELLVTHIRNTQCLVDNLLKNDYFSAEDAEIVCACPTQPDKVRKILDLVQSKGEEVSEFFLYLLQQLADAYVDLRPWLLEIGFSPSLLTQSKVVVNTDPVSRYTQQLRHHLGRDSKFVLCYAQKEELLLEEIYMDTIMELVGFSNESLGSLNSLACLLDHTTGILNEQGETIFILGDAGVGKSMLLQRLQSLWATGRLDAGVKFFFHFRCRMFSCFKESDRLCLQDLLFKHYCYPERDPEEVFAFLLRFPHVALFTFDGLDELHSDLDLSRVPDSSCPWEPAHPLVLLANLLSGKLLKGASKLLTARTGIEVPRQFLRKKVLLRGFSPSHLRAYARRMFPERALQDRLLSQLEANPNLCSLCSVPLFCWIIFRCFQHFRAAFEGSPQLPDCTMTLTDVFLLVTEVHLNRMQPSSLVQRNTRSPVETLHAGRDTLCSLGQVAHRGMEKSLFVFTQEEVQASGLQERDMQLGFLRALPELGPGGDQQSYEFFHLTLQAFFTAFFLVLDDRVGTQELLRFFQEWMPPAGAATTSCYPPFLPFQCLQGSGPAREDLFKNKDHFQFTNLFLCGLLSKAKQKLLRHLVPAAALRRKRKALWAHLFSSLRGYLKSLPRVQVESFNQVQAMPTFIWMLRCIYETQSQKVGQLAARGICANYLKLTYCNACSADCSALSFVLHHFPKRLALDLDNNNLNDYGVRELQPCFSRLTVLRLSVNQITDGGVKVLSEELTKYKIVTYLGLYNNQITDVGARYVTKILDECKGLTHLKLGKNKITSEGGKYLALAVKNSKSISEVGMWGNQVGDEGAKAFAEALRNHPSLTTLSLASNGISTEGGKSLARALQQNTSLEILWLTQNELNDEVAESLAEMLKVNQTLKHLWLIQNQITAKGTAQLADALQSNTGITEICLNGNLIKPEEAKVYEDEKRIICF
Sequence of Coagulation factor XII (P00748 20-372 limits assumed): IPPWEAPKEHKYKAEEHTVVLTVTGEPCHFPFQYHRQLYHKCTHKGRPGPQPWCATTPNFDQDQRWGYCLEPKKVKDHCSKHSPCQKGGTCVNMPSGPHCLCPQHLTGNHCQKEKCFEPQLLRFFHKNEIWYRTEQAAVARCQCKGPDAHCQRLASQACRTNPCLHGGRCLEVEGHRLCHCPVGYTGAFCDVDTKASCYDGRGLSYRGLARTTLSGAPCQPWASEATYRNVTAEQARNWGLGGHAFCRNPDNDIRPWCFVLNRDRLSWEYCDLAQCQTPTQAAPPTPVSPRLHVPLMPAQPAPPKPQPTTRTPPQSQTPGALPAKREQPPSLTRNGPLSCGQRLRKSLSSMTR
Sequence of Coagulation factor XII (P00748 373-615 limits assumed): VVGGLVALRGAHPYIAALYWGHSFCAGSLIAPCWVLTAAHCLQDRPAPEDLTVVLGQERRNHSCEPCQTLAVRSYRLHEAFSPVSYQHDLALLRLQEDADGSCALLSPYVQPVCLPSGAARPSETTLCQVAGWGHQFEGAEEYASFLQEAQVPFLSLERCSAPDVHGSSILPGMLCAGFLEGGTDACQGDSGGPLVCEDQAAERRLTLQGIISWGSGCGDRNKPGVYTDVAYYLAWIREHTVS
Sequence of G-protein coupled receptor 55 (Q9Y2T6 whole entry): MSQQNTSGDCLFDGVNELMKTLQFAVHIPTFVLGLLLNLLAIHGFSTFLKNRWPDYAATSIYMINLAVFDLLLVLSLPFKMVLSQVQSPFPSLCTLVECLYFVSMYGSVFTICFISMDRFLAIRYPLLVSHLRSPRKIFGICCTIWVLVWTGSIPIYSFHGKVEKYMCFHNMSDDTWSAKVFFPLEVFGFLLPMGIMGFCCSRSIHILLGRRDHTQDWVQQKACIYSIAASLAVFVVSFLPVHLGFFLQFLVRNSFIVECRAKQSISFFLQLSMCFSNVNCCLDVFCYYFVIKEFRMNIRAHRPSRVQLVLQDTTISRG
Sequence of CAAX prenyl protease 2 (Q03530 whole entry): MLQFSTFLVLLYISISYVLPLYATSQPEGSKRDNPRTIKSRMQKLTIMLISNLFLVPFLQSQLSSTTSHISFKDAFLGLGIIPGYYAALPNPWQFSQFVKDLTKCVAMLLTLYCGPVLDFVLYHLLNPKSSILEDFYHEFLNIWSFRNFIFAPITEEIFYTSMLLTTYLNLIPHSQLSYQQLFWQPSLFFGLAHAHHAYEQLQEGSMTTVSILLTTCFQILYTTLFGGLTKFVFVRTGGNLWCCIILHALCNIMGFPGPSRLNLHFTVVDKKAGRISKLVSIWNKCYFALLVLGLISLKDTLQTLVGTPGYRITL
Sequence of Glyceraldehyde-3-phosphate dehydrogenase (P04406 whole entry): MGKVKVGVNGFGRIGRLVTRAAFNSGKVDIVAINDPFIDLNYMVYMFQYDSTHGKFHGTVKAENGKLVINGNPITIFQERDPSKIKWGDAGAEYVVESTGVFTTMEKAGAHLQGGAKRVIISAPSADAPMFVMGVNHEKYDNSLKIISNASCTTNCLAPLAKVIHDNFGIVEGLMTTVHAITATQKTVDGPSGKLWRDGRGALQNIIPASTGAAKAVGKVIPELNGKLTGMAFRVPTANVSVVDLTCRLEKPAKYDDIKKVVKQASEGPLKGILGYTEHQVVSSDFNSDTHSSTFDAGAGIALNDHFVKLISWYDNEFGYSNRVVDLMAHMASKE
Sequence of Melanin-concentrating hormone receptor 1 (Q99705 whole entry): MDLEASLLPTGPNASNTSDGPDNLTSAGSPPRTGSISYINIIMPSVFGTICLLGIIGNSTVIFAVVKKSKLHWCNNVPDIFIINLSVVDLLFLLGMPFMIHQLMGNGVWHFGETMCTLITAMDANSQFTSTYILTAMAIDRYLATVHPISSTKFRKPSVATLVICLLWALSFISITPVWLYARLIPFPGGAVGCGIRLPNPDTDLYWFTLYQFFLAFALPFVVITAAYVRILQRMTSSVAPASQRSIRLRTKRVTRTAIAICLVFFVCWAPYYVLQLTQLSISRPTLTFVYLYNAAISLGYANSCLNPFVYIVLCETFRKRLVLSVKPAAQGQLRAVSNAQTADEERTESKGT

In the case of `NS(=O)(=O)c1ccc(NC(=S)NC2CC2)cc1`, the IC50 [1] is reported as 12.5 µM (active), the IC50 [2] is reported as 27.9 µM (active) and the IC50 [3] is reported as 5.38 µM (active). The IC50 [4] was > 99 µM (inactive), the IC50 [5] was > 100 µM (inactive) and the IC50 [6] was > 100 µM (inactive). The IC50 [7] was 0.588 µM (active) and the IC50 [8] was > 99 µM (inactive).
For `CC(C)C[C@@H](CSc1ccc(Br)cc1)N1CCN(CC(C)C)CCC1=O`, the EC50 [9] was 15.3 µM (inactive).
With `COc1ccc(Oc2c(Cl)cnn(-c3cc(Cl)cc(Cl)c3)c2=O)cc1` the IC50 [10] was 1.1 µM (active).
For `CCCCCC(=O)N/N=C/c1ccc([N+](=O)[O-])o1`, the EC50 [11] was 0.183 µM (active), the AC50 [12] was 26.6 µM (active) and the EC50 [13] was > 60 µM (not active).
For `CCc1ccc(/N=C2/NC(=O)/C(=C/c3ccc(OCC(=O)O)c(Cl)c3)S2)cc1`, the IC50 [14] was 7.69 µM (active), the IC50 [3] was 4.83 µM (active) and the IC50 [4] was 65.7 µM (active). For the same molecule, the IC50 [6] was 2.71 µM (active), the IC50 [15] was 21.7 µM (active) and the IC50 [7] was 2.89 µM (active). For the same molecule, the IC50 [16] was 11.2 µM (active).
In the case of `OC1c2cc(Br)ccc2N=C2CCCN21` (stereo not given), the IC50 (Vero [17]) is reported as > 25 µM (active), the CC50 (Vero [18]) is reported as 35.5 µM (active) and the EC50 [11] is reported as 3.78 µM (active). For the same molecule, the IC50 [19] was 14.5 µM (active), the CC50 (Vero [20]) was 71.5 µM (active) and the IC50 (Vero [21]) was 25.7 µM (active). For the same molecule, the CC50 (Vero [22]) was > 80 µM (active) and the EC50 [13] was > 60 µM (not active).
In the case of `COc1ccc(-c2cc(C(=O)NC3CCCc4c3cnn4-c3ccccc3F)n(C)n2)cc1` (stereo not given), the IC50 (Tumor necrosis factor) is reported as 1.36 µM (active), the IC50 (HEK293) is reported as > 20 µM (inactive) and the IC50 [23] is reported as 0.99 µM (active). The IC50 [24] was 1.34 µM (active).
With `O=C(O)c1cc(-c2ccccc2Cl)n[nH]1` the IC50 [25] was > 100 µM (inactive), the IC50 [26] was > 100 µM (not active) and the IC50 [27] was 0.584 µM (active).
With `CCn1cc(/C=C(\NC(=O)c2ccccc2F)C(=O)N2CCCC2)c2ccccc21` the AC50 (CAAX prenyl protease 2) was 3.91 µM (active).
In the case of `CN(CC(=O)Nc1cccnc1)S(=O)(=O)c1cc(Cl)ccc1Cl`, the IC50 (Coagulation factor XII) is reported as > 50 µM (inactive).
For `O=C(O)c1cccc2c1NC(c1ccc(Cl)cc1)C1CC=CC21` (stereo not given), the Ki [28] was 119 µM (inactive).
In the case of `Cc1cc(O)nc(-n2nc(C)cc2NC(=O)c2ccccc2Br)n1`, the EC50 [29] is reported as > 49.7 µM (inactive) and the EC50 (Wee1-like protein kinase) is reported as > 49.7 µM (inactive).
